Laboratory results: patent publication US20220324835A1 (Nurix Therapeutics, Inc., priority 2018, published 2022)
pIC50: −log10 of the molar value.

Experiments:
[1] = target: T1, Cbl-b (Homo sapiens, UniProt Q13191); test: Cbl-b inhibition assay (Cbl-b activity assay, FRET, Biological Example 1; 100 mM NaCl, 60 nM Src kinase); format: biochemical; settings: upper bound stated in text lists; read-out: IC50 values in the Cbl-b inhibition assay of Biological Example 1
From the text: FIG. 1A and FIG. 1B show a series of diagrams depicting the activity assay utilized to assay inhibition of Cbl-b activity by a Cbl-b inhibitor. FIG. 1A: The activity assay mixture comprises an N-terminal biotinylated Avi-tagged Cbl-b, an E2 enzyme (i.e., UbcH5B) irreversibly conjugated to Bodipy-Fluorescein tagged ubiquitin (i.e., UbcH5B-Ub), a Src kinase, streptavidin-terbium, and assay buffer. Phosphorylation of Cbl-b by the Src kinase allows UbcH5B-Ub to bind to Cbl-b and bring the Bodipy-Fluorescein tagged ubiquitin in proximity to the streptavidin-terbium bound to the N-terminal biotinylated Avi-tagged Cbl-b. […] FIG. 1B: In the presence of a Cbl-b inhibitor, such as one described herein, Cbl-b is unable to bind UbcH5B-Ub. The lack of a FRET signal indicates Cbl-b is inhibited by the Cbl-b inhibitor. Ub indicates ubiquitin; N-Avi indicates biotinylated Avi-tag at the N-terminus of Cbl-b; inhibitor indicates Cbl-b inhibitor.
The lack of a FRET signal indicates Cbl-b is inhibited by the Cbl-b inhibitor. In FIG. 1A and FIG. 1B, Ub indicates ubiquitin; N-Avi indicates biotinylated Avi-tag at the N-terminus of Cbl-b; and inhibitor indicates Cbl-b inhibitor.

[2] = target: T1, Cbl-b; test: Cbl-b activity assay (Cbl-b inhibition assay), TR-FRET of Cbl-b interaction with UbcH5B-Ub; format: biochemical; settings: for pIC50: assay buffer with 100 mM NaCl, 60 nM Src kinase, read-out: Cbl-b activity IC50; for IC50: * assay buffer containing 50 mM NaCl instead of 100 mM NaCl and 30 nM Src kinase instead of 60 nM, read-out: Cbl-b activity IC50 (μM)*
Method: The ability of candidate compounds to inhibit Cbl-b activity was measured by monitoring the interaction of Cbl-b with UbcH5B-Ub in the presence of the candidate compound.
Fluorescently labeled UbcH5B-Ub was prepared by conjugating ubiquitin (Ub), labeled at its N-terminus with Bodipy-Fluorescein, to UbcH5B, an E2 enzyme, harboring a cysteine to lysine mutation at position 85. […] After incubation in the presence of the candidate compound, the plate was incubated for an additional 1.5 hours in the presence of 60 nM Src kinase with 1 mM ATP and 5 mM MgCl2 (final concentrations). […] The plate was incubated for 1 hour.
Column marked with an asterisk (*) were tested as described above with assay buffer containing 50 mM NaCl instead of 100 mM NaCl and 30 nM Src kinase instead of 60 nM Src kinase. The resulting data for the Cbl-b binding assay was solvent corrected and double referenced prior to analysis. All data were globally fit to a steady-state affinity and kinetic binding model where applicable). Fit parameters were derived from a 1:1 binding model using the Biacore T200 Evaluation Software V2.0 (GE Healthcare) (Table 2).

T1 sequence (Q13191 36-427): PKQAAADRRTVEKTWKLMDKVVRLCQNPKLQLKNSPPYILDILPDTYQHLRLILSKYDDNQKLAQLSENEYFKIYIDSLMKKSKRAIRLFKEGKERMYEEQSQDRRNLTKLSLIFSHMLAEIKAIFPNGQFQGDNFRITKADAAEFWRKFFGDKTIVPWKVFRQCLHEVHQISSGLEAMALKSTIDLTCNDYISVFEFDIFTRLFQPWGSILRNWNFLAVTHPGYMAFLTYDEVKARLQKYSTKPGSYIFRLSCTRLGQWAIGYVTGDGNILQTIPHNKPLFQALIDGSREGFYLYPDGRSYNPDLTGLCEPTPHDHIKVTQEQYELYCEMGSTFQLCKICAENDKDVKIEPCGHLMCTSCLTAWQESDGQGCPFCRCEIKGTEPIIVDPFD

Compound	pIC50 [1]	pIC50 [2]	IC50 [2] [µM]
C[C@@H]1CN(Cc2cc(C(=O)Nc3cccc(C4(Cc5nncn5C)COC4)c3)nc(C3CC3)c2)CCO1 [Compound 501, 6-cyclopropyl-N-(3-{3-[(4-methyl-1,2,4-triazol-3-yl)methyl]oxetan-3-yl}phenyl)-4-{[(2R)-2-methylmorpholin-4-yl]methyl}pyridine-2-carboxamide]	≥ 7.00	> 7.00	
C[C@H](Cc1nncn1C)c1cccc(NC(=O)c2cc(C(=O)NC3CCOC3)ccn2)c1 (stereo partly drawn) [Compound 228, N2-(3-((R)-1-(4-methyl-4H-1,2,4-triazol-3-yl)propan-2-yl)phenyl)-N4-(tetrahydrofuran-3-yl)pyridine-2,4-dicarboxamide]	≥ 5.00	5.00 to 5.52	
COC[C@@H]1CN(Cc2cc3c(c(C(F)(F)F)c2)CN(c2cccc(C4(Cc5nncn5C)COC4)c2)C3=O)CCO1 [Example 667, (S)-6-((2-(methoxymethyl)morpholino)methyl)-2-(3-(3-((4-methyl-4H-1,2,4-triazol-3-yl)methyl)oxetan-3-yl)phenyl)-4-(trifluoromethyl)isoindolin-1-one]	≥ 7.00	> 7.00	
Cn1cnnc1CC1(c2cccc(N3Cc4c(cc(CN5CCOC(C6CC6)C5)cc4C(F)(F)F)C3=O)c2)COC1 (centres unmarked) [Example 718, 6-[(2-cyclopropylmorpholin-4-yl)methyl]-2-(3-{3-[(4-methyl-1,2,4-triazol-3-yl)methyl]oxetan-3-yl}phenyl)-4-(trifluoromethyl)-3H-isoindol-1-one]	≥ 7.00	> 7.00	
C[C@H](Cc1nncn1C)c1cccc(NC(=O)c2ccn(C)n2)c1 [Compound 197, (R)-1-methyl-N-(3-(1-(4-methyl-4H-1,2,4-triazol-3-yl)propan-2-yl)phenyl)-1H-pyrazole-3-carboxamide]	≥ 5.00	5.52 to 6.00	
Cn1cnnc1CC1(c2cccc(N3Cc4c(cc(CN5CCOC(CCF)C5)cc4C(F)(F)F)C3=O)c2)COC1 (centres unmarked) [Compound 521, 6-{[2-(2-fluoroethyl)morpholin-4-yl]methyl}-2-(3-{3-[(4-methyl-1,2,4-triazol-3-yl)methyl]oxetan-3-yl}phenyl)-4-(trifluoromethyl)-3H-isoindol-1-one]	≥ 7.00	> 7.00	
Cc1cc(C(=O)Nc2cccc(C3(Cc4nncn4C)COC3)c2)n2nc(C)cc2n1 [Example 597, 2,5-dimethyl-N-(3-(3-((4-methyl-4H-1,2,4-triazol-3-yl)methyl)oxetan-3-yl)phenyl)pyrazolo[1,5-a]pyrimidine-7-carboxamide]	≥ 6.52	6.52 to 7.00	
C[C@@H]1CCN(Cc2cc3c(c(C(F)(F)F)c2)CN(c2cccc(C4(Cc5nncn5C)COC4)c2)C3=O)C[C@@H]1F [Example 639a, 6-(((3R,4R)-3-fluoro-4-methylpiperidin-1-yl)methyl)-2-(3-(3-((4-methyl-4H-1,2,4-triazol-3-yl)methyl)oxetan-3-yl)phenyl)-4-(trifluoromethyl)isoindolin-1-one]	≥ 7.00	> 7.00	
CC(C)C1CN(Cc2cc3c(c(C(F)(F)F)c2)CN(c2cccc(C4(Cc5nncn5C)COC4)c2)C3=O)CCO1 (centres unmarked) [Example 716, 6-[(2-isopropylmorpholin-4-yl)methyl]-2-(3-{3-[(4-methyl-1,2,4-triazol-3-yl)methyl]oxetan-3-yl}phenyl)-4-(trifluoromethyl)-3H-isoindol-1-one]	≥ 7.00	> 7.00	
Cn1cnnc1C(F)(F)[C@@](C)(F)c1cccc(N2Cc3c(cccc3C(F)(F)F)C2=O)c1 [Compound 296b, (S)-2-(3-(1,1,2-trifluoro-1-(4-methyl-4H-1,2,4-triazol-3-yl)propan-2-yl)phenyl)-4-(trifluoromethyl)isoindolin-1-one]	≥ 5.00	5.00 to 5.52	
CC(Cc1nccn1C)c1cccc(N2Cc3c(cccc3C(F)(F)F)C2=O)c1 (centres unmarked) [Compound 267, 2-(3-(1-(1-methyl-1H-imidazol-2-yl)propan-2-yl)phenyl)-4-(trifluoromethyl)isoindolin-1-one]	≥ 5.00	5.00 to 5.52	
Cc1nnnn1CC(C)c1cccc(NC(=O)c2cccc(C(F)(F)F)n2)c1 (centres unmarked) [Compound 217, N-[3-[1-methyl-2-(5-methyltetrazol-1-yl)ethyl]phenyl]-6-(trifluoromethyl)pyridine-2-carboxamide]	≥ 5.00	< 5.00	
COC(Cc1nncn1C)c1cccc(N2Cc3c(cccc3C(F)(F)F)C2=O)c1 (centres unmarked) [Compound 290, 2-(3-(1-methoxy-2-(4-methyl-4H-1,2,4-triazol-3-yl)ethyl)phenyl)-4-(trifluoromethyl)isoindolin-1-one]	≥ 5.00	5.52 to 6.00	
Cc1cc(C(=O)Nc2cccc(C3(Cc4nncn4C(F)F)COC3)c2)nc(C2CC2)n1 [Example 704, 2-cyclopropyl-N-(3-(3-((4-(difluoromethyl)-4H-1,2,4-triazol-3-yl)methyl)-oxetan-3-yl)phenyl)-6-methylpyrimidine-4-carboxamide]	≥ 7.00	> 7.00	
Cn1cnnc1CC1(c2cccc(N3Cc4c(cc(CN5Cc6cccc(Cl)c6C5)cc4C(F)(F)F)C3=O)c2)COC1 [Example 657, 6-((4-chloroisoindolin-2-yl)methyl)-2-(3-(3-((4-methyl-4H-1,2,4-triazol-3-yl)methyl)oxetan-3-yl)phenyl)-4-(trifluoromethyl)isoindolin-1-one]	≥ 7.00	> 7.00	
C[C@H](Cc1n[nH]cc1CO)c1cccc(N2Cc3c(cccc3C(F)(F)F)C2=O)c1 [Compound 271b, (R)-2-(3-(1-(4-(hydroxymethyl)-1H-pyrazol-3-yl)propan-2-yl)phenyl)-4-(trifluoromethyl)isoindolin-1-one]	≥ 5.00	5.52 to 6.00	
C[C@H](Cc1nncs1)c1cccc(N2Cc3c(cccc3C(F)(F)F)C2=O)c1 [Compound 368, (R)-2-(3-(1-(1,3,4-thiadiazol-2-yl)propan-2-yl)phenyl)-4-(trifluoromethyl)isoindolin-1-one]		6.00 to 6.52	
CC(Sc1nccn1C)c1cccc(NC(=O)c2cc3ccccc3cn2)c1 (centres unmarked) [Compound 100, N-[3-[1-(1-methylimidazol-2-yl)sulfanylethyl]phenyl]isoquinoline-3-carboxamide]			3 to 10
CCn1cnnc1CC1(c2cccc(NC(=O)c3cc(C)nc(C4CC4)n3)c2)COC1 [Example 705, 2-cyclopropyl-N-(3-{3-[(4-ethyl-1,2,4-triazol-3-yl)methyl]oxetan-3-yl}phenyl)-6-methylpyrimidine-4-carboxamide]		5.00 to 5.52	
CC(Sc1nncn1C)c1cccc(N2Cc3c(cccc3C(F)(F)F)C2=O)c1 (centres unmarked) [Compound 166, 2-(3-(1-((4-methyl-4H-1,2,4-triazol-3-yl)thio)ethyl)phenyl)-4-(trifluoromethyl)isoindolin-1-one]			0.301 to 1
Cc1cnc(C(=O)Nc2cccc([C@H](C)Sc3nncn3C)c2)cc1C [Compound 36, (S)-4,5-Dimethyl-N-(3-(1-((4-methyl-4H-1,2,4-triazol-3-yl)thio)ethyl)phenyl)picolinamide]			1 to 3
CC(Sc1nncn1C)c1cccc(NC(=O)c2ccc3ncccc3n2)c1 (centres unmarked) [Compound 20, N-(3-(1-((4-Methyl-4H-1,2,4-triazol-3-yl)thio)ethyl)phenyl)-1,5-naphthyridine-2-carboxamide]			3 to 10
